Where a name gives a salt, the structure may show the parent alone.
Tests used:
[1] = test system: pressor responses induced by AII; experiment: Test C: antagonism of AII-induced pressor responses in terminally-anaesthetised or conscious rats; format: in vivo; conditions: iv, rat, i.v. administration, AII-induced pressor response
Source text: (§1) The antagonism of one or more of the physiological actions of AII and, in particular, the antagonism of the interaction of AII with the receptors which mediate its effects on a target tissue, may be assessed using one or more of the following, routine laboratory procedures.
Test C: This in vivo test involves using terminally-anaesthetised or conscious rats in which an arterial catheter has been implanted under anaesthesia for the measurement of changes in blood pressure. The AII antagonistic effects of the test compound following oral or parenteral administration, are assessed against pressor responses induced by AII. To ensure that the effect is specific the effect of the test compound on vasopressin-induced pressor responses may also be determined in the same preparation.

[2] = molecular target: T1, angiotensin II (AII) receptors, guinea pig adrenal gland membrane (Cavia porcellus, UniProt Q9WV26); experiment: Test A: displacement of radiolabelled AII binding to guinea pig adrenal cell surface membranes; conditions: in vitro, read-out: IC50 (concentration for 50% displacement of radiolabelled AII binding)
T1 construct: from tissue; host or cells: guinea pig adrenal gland, cell surface membrane fraction
T1 sequence (Q9WV26 1-359): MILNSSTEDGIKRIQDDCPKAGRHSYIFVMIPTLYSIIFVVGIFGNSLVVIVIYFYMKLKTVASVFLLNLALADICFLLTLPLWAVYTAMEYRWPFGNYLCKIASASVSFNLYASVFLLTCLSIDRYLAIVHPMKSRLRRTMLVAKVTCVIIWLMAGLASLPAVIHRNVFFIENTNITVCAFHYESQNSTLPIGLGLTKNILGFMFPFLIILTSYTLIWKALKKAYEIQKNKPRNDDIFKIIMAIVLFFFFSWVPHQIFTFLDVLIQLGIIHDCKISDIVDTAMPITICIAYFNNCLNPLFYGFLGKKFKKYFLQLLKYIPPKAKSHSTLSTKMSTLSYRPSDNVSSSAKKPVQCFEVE
Experimental: as §1
Test A: This in vitro procedure involves the incubation of the test compound initially at a concentration of 100 micromolar (or less) in a buffered mixture containing fixed concentrations of radiolabelled AII and a cell surface membrane fraction prepared from a suitable angiotensin target tissue. In this test, the source of cell surface membranes is the guinea pig adrenal gland which is well known to response to AII. Interaction of the radiolabelled AII with its receptors (assessed as radiolabel bound to the particulate membrane fraction following removal of unbound radiolabel by a rapid filtration procedure such as is standard in such studies) is antagonized by compounds which also bind to the membrane receptor sites and the degree of antagonism (observed in the test as displacement of membrane-bound radioactivity) is determined readily by comparing the receptor-bound radioactivity in the presence of the test compound at the specified test concentration with a control value determined in the absence of the test compound. […]

CCNC(=O)OCCOc1ccc2nc(CC)cc(OCc3ccc(-c4ccccc4-c4nn[nH]n4)cc3)c2n1 [Example 2, 2-ethyl-6-(2-ethylaminocarbonyloxy)ethoxy)-4-[(2'-(1H-tetrazol-5-yl)biphenyl-4-yl)methoxy]-1,5-naphthyridine hydrochloride]
ED50 [1]: 0.08 mg/kg | IC50 [2]: 18 nM
